Results as given in patent publication US9217014B2, “Antifungal agents and uses thereof” (Cidara Therapeutics, Inc., priority 2011, dated 2015).
Where two headings read alike, the source gives them in different places. *1 amine or outer side, *2 acyl side, *3 side chain or, on linkers, in order; H or OH if unused. Where a SMILES comes first, the peptide text is derived from it. Bridges are numbered along the chain shown (N, C = ends). [ ]: non-standard residue; d: D form. The star is where a group is joined. pTerphenylCO(4''-OnC5H11) = CCCCCOc1ccc(-c2ccc(-c3ccc(C(=O)*)cc3)cc2)cc1; Orn(4R-OH,5R-OH) = O=C([C@H](C[C@@H](O)[C@@H](O)N[*:3])N[*:1])[*:2]; hTyr(3S-OH,4S-OH) = N[C@H](C(=O)O)[C@H](O)[C@@H](O)c1ccc(O)cc1; Pro(3S-OH,4S-Me) = C[C@H]1CN[C@H](C(=O)O)[C@H]1O; Hyp = O=C(O)[C@@H]1C[C@@H](O)CN1

Legend:
[1] = Pharmacokinetics in beagle dogs, intravenous; assay type: in vivo; details: 1.4 mg/kg intravenous slow bolus, mean ± SEM, n = 4 beagle dogs
Description: The test articles were administered to beagle dogs weighing approximately 6-10 kg. Each test article was dosed at 1.4 mg/kg in aqueous saline (with or without 0.5% Tween) over course of 1-10 minutes. […] The dogs were fasted at least 12 hours prior to each dosing and offered food after the 4-hour blood sample was taken; water was withheld for 1 hour prior to and 4 hours following each dosing event. The dose for each animal was based on its most recent body weight. The test article was injected intravenously via a catheter placed in the cephalic vein as a slow bolus.
Blood was collected via the jugular vein. All blood samples (˜1 mL each) were collected into K3EDTA tubes. Following blood collection, the samples were immediately inverted several times and were held on wet ice pending centrifugation. The samples were centrifuged within ˜30 minutes of collection under refrigeration (˜5° C. for ˜10 minutes at ˜2000 g) to obtain plasma. The plasma was frozen immediately on dry ice after separation. The plasma samples were stored at approximately −70° C. until analysis.
Plasma (100 μL) was precipitated with 400 μL of 0.1% formic acid in acetonitrile containing the internal standard (100 ng/mL pneumocandin). The samples were then capped and vortexed for about 30 seconds followed by centrifugation at 14,000 rpm at room temperature for 10 minutes. Following centrifugation 200 μL of supernatant was transferred to plastic autosampler vials containing 200 μL of 0.1% formic acid in water and vortexed. Samples were then analyzed by LCMSMS.
All pharmacokinetic calculations were performed using WinNonlin version 4.1 (Pharsight Corp) by noncompartmental analysis.

C. albicans R303 = experiment: mouse candidiasis infection model, IP administration, kidney fungal burden; assay type: in vivo
Description: The objective of these studies was to evaluate the efficacy of test compounds in the mouse candidiasis infection model. Amounts of test articles are uncorrected.
The strain, C. albicans R303 was transferred from frozen storage onto Sabauroud dextrose agar (SDA) plates and grown for ˜24 hr at 35° C. The inoculum was prepared by transferring colonies from the plate to phosphate buffered saline (PBS) and the concentration adjusted to approximately 10^6 CFU/mL with the aid of a spectrophotometer. The stock was diluted 1:9 to prepare the inoculum. Prior to each run the concentration was verified using the dilution plate count method.
Female CD-1 mice were used in this study. The animals were approximately seven-weeks-old at the start of the study and weighed about 15-30 g.
Mice were made neutropenic with IP injections of cyclophosphamide (150 mg/kg in 10 mL/kg) at 4 and 1 day before inoculation. Each animal was inoculated with the appropriate concentration by injecting 0.1 mL of inoculum into a tail vein. The test compounds were administered IP at 2 hr after infection.
In a typical procedure, the kidneys were collected from four mice in control group 1 (untreated) at 2 hr after infection, and from another four mice in control group 2 (untreated) at 24 hr after infection. Kidneys were removed aseptically from each mouse and were combined in a sterile tube. An aliquot (2 mL) of sterile PBS was added to each tube and the contents homogenized with a tissue homogenizer (Polytron 3100). Serial dilutions of the tissue homogenates were conducted and 0.1 mL aliquots were spread on SDA plates and the plates incubated at 35° C. overnight. The CFU/kidneys were determined from colony counts. Data were analyzed using one-way ANOVA with either the Tukey-Kramer Multiple Comparisons Test or Dunnett Test (GraphPad InStat version 3.06, GraphPad Software, San Diego, Calif.).
The data reported below are the average of four mice. Each run included a separate control and each is tabulated separately.

[2] = Solubility in aqueous buffers of varying pH; assay type: physicochemical; details: ambient temperature, compound 1 as acetate salt
Description: The solubility of compound 1 (acetate salt) was measured in aqueous buffers of varying pH to assess this compound's suitability for formulation in an aqueous carrier for administration by injection (e.g., intravenous or intramuscular injection).

[3] = Solubility in non-aqueous solvents; assay type: physicochemical; details: organic solvent or mixture, compound 1 as acetate salt
Description: The solubility of compound 1 (acetate salt) was also measured in non-aqueous solvents to assess this compound's suitability for formulation in non-aqueous carriers.

`CCCCCOc1ccc(-c2ccc(-c3ccc(C(=O)N[C@H]4C[C@@H](O)[C@@H](O)NC(=O)[C@@H]5[C@@H](O)[C@@H](C)CN5C(=O)[C@H]([C@@H](C)O)NC(=O)[C@H]([C@H](O)[C@@H](O)c5ccc(O)cc5)NC(=O)[C@@H]5C[C@@H](O)CN5C(=O)[C@H]([C@@H](C)O)NC4=O)cc3)cc2)cc1` [anidulafungin, reference compound] ({pTerphenylCO(4''-OnC5H11)}-[Orn(4R-OH,5R-OH)]T[Hyp][hTyr(3S-OH,4S-OH)]T[Pro(3S-OH,4S-Me)]; lactam 1-C) showed a CI [1] of 0.785 ± 0.032 mL/min/kg, a Vz [1] of 0.779 ± 0.0304 L/kg and a half-life ([1]; beagle, dog, in vivo, iv, 1.4 mg/kg, read-out: T ½ (converted)) of ~12 h. For the same compound, the log reduction at 1 mg/kg (C. albicans R303; Candida albicans, R303, ip, 24 h, read-out: Difference from 24-h control, Fifth run, IP 1 mg/kg) was 2.07, the log reduction at 1 mg/kg (C. albicans R303; Candida albicans, R303, ip, 24 h, read-out: Difference from 24-h control, First run, IP 1 mg/kg) was 1.83 and the log reduction at 0.5 mg/kg (C. albicans R303; Candida albicans, R303, ip, 24 h, read-out: Difference from 24-h control, Fourth run, IP 0.5 mg/kg) was 1.29. For the same compound, the log reduction at 1.5 mg/kg (C. albicans R303; Candida albicans, R303, ip, 24 h, read-out: Difference from 24-h control, Fourth run, IP 1.5 mg/kg) was 4.03, the log reduction at 0.5 mg/kg (C. albicans R303; Candida albicans, R303, ip, 24 h, read-out: Difference from 24-h control, Second run, IP 0.5 mg/kg) was 0.47 and the log reduction at 1.5 mg/kg (C. albicans R303; Candida albicans, R303, ip, 24 h, read-out: Difference from 24-h control, Second run, IP 1.5 mg/kg) was 2.11. For the same compound, the log reduction at 4.5 mg/kg (C. albicans R303; Candida albicans, R303, ip, 24 h, read-out: Difference from 24-h control, Second run, IP 4.5 mg/kg) was 3.78, the “Mean log10 CFU/kidneys (±SEM)” value (C. albicans R303; Fifth run, IP 1 mg/kg, kidneys 24 h after infection) was 3.06 ± 0.18 log10 CFU/kidneys and the “Mean log10 CFU/kidneys (±SD)” value (C. albicans R303; First run, IP 1 mg/kg, neutropenic mice, kidneys 24 h after infection) was 3.37 ± 0.72 log10 CFU/kidneys. The “Mean log10 CFU/kidneys (±SEM)” value (C. albicans R303; Fourth run, IP 0.5 mg/kg, kidneys 24 h after infection) was 3.81 ± 0.19 log10 CFU/kidneys, the “Mean log10 CFU/kidneys (±SEM)” value (C. albicans R303; Fourth run, IP 1.5 mg/kg, kidneys 24 h after infection) was 1.08 ± 0.08 log10 CFU/kidneys and the “Mean log10 CFU/kidneys (±SEM)” value (C. albicans R303; Second run, IP 0.5 mg/kg, kidneys 24 h after infection) was 4.41 ± 0.12 log10 CFU/kidneys. For the same compound, the “Mean log10 CFU/kidneys (±SEM)” value (C. albicans R303; Second run, IP 1.5 mg/kg, kidneys 24 h after infection) was 2.77 ± 0.20 log10 CFU/kidneys, the “Mean log10 CFU/kidneys (±SEM)” value (C. albicans R303; Second run, IP 4.5 mg/kg, kidneys 24 h after infection) was 1.10 ± 0.38 log10 CFU/kidneys and the solubility ([2]; aqueous buffer, pH 3 (0.01M formate buffer)) was < 10 µg/mL. The solubility ([2]; aqueous buffer, pH 4.6 (0.1M acetate buffer)) was < 10 µg/mL, the solubility ([2]; aqueous buffer, pH 5.6 (0.1M acetate buffer)) was < 10 µg/mL and the solubility ([2]; aqueous buffer, pH 7.4 (0.1M phosphate buffer)) was < 10 µg/mL. For the same compound, the solubility ([2]; aqueous buffer, pH 8.5 (0.01M TRIS buffer)) was < 10 µg/mL, the solubility ([2]; saline or isotonic, 0.9% saline) was < 10 µg/mL and the solubility ([2]; simulated gastric fluid, pH 1 (0.1M HCl)) was < 10 µg/mL. The solubility ([3]; Ethanol (EtOH)) was > 17600 µg/mL, the solubility ([3]; Glycerol) was 1500 µg/mL and the solubility ([3]; PEG400) was > 26800 µg/mL. The solubility ([3]; Propylene glycol(PG)) was > 17200 µg/mL.
